How the values were obtained:
PI3Kδ = PI3Kδ (Homo sapiens (Human), UniProt O00329); experiment: PI3Kδ enzyme activity inhibition IC50 evaluation assay; format: biochemical; details: luminescence, 25 μM ATP, 50 μM PIP2, 2 hrs room temperature
Description: (§1) PI3Kα, PI3Kδ, PI3Kβ and PI3Kγ Enzyme Activity Inhibition IC50 Evaluation Assay
• 1. Buffer preparation: 50 mM HEPES, pH 7.5, 3 mM MgCl2, 1 mM EGTA, 100 mM NaCl, 0.03% CHAPS. • 2. Compound was formulated in 100% DMSO in a concentration gradient, and added to a 384-well plate to a final DMSO concentration of 1%. • 3. PI3Kα, PI3Kδ, PI3Kβ and PI3Kγ enzymes were diluted to an optimum concentration with the following buffer: 50 mM HEPES, pH 7.5, 3 mM MgCl2, 1 mM EGTA, 100 mM NaCl, 0.03% CHAPS, 2 mM DTT, and transferred to a 384-well plate and incubated with the compound for a certain time. • 4. […] For PI3Kβ and PI3Kγ, it was still necessary to further add 10 μL ADP-Glo Detection Reagent, and then equilibrated at room temperature for 30 minutes. • 5. Read Luminescense with FlexStation, and calculate the inhibition rate as the average of two tests.

PI3Kα = PI3Kα (Homo sapiens (Human), UniProt P42336); experiment: PI3Kα enzyme activity inhibition IC50 evaluation assay; format: biochemical; details: ratio PI3Kα vs PI3Kδ
Description: as §1
• 1. Buffer preparation: 50 mM HEPES, pH 7.5, 3 mM MgCl2, 1 mM EGTA, 100 mM NaCl, 0.03% CHAPS. • 2. Compound was formulated in 100% DMSO in a concentration gradient, and added to a 384-well plate to a final DMSO concentration of 1%. • 3. PI3Kα, PI3Kδ, PI3Kβ and PI3Kγ enzymes were diluted to an optimum concentration with the following buffer: 50 mM HEPES, pH 7.5, 3 mM MgCl2, 1 mM EGTA, 100 mM NaCl, 0.03% CHAPS, 2 mM DTT, and transferred to a 384-well plate and incubated with the compound for a certain time. • 4. Substrate was diluted to an optimum concentration with the following buffer: 50 mM HEPES, pH 7.5, 3 mM MgCl2, 1 mM EGTA, 100 mM NaCl, 0.03% CHAPS, 2 mM DTT, 50 μM PIP2, 25 μM ATP; then added to a 384-well plate to initiate the reaction, and for PI3Kα, PI3Kβ and PI3Kγ at room temperature reacted for 1 hr, for PI3Kδ at room temperature reacted for 2 hrs. For PI3Kβ and PI3Kγ, it was still necessary to further add 10 μL ADP-Glo Detection Reagent, and then equilibrated at room temperature for 30 minutes. • 5. Read Luminescense with FlexStation, and calculate the inhibition rate as the average of two tests.

PI3Kα, sequence (P42336 whole entry): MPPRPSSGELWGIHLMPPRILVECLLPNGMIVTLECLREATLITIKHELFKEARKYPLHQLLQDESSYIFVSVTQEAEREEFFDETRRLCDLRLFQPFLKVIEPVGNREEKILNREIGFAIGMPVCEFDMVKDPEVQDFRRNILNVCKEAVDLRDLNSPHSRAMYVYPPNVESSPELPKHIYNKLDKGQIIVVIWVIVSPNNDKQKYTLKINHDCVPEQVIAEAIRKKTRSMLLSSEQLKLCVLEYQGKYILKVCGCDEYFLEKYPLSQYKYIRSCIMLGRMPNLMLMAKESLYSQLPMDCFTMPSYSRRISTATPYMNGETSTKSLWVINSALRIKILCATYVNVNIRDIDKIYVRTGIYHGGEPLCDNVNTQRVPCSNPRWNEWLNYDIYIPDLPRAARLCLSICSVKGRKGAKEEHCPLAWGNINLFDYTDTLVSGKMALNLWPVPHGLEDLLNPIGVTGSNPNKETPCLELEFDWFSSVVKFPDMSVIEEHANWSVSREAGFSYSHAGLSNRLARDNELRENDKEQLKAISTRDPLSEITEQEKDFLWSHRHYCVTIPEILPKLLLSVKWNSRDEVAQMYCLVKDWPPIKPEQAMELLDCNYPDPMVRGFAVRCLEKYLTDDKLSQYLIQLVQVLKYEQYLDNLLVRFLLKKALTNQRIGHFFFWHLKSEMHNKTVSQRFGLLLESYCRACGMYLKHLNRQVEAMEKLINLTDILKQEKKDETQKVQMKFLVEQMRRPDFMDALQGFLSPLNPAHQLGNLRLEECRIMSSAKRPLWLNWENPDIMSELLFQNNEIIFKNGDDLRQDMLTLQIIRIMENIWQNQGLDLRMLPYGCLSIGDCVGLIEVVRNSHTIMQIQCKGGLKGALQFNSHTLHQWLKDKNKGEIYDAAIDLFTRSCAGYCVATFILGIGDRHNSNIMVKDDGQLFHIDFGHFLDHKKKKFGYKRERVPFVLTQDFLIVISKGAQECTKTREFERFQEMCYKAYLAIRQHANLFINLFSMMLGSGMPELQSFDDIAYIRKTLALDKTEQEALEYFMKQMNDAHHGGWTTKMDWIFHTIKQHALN
PI3Kα, sequence (P27986 whole entry partner): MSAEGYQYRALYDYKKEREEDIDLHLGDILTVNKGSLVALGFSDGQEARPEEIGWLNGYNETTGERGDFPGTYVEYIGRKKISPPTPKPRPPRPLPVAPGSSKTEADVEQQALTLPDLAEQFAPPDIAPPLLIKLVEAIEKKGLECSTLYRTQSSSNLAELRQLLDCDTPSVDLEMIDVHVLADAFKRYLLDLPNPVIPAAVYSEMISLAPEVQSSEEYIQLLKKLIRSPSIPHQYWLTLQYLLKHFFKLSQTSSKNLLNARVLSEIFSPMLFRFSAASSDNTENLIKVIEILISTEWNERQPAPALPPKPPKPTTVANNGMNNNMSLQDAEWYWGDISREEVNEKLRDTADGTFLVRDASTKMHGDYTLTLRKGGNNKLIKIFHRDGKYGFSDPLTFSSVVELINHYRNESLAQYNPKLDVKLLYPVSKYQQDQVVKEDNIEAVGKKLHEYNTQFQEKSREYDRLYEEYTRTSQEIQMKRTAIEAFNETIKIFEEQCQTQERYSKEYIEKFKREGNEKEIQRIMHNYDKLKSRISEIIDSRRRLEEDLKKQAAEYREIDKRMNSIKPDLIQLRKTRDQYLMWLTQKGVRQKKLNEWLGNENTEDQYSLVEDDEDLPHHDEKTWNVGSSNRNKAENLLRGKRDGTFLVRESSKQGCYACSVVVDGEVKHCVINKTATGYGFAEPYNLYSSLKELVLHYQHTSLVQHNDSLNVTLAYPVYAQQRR
PI3Kδ, sequence (O00329 whole entry): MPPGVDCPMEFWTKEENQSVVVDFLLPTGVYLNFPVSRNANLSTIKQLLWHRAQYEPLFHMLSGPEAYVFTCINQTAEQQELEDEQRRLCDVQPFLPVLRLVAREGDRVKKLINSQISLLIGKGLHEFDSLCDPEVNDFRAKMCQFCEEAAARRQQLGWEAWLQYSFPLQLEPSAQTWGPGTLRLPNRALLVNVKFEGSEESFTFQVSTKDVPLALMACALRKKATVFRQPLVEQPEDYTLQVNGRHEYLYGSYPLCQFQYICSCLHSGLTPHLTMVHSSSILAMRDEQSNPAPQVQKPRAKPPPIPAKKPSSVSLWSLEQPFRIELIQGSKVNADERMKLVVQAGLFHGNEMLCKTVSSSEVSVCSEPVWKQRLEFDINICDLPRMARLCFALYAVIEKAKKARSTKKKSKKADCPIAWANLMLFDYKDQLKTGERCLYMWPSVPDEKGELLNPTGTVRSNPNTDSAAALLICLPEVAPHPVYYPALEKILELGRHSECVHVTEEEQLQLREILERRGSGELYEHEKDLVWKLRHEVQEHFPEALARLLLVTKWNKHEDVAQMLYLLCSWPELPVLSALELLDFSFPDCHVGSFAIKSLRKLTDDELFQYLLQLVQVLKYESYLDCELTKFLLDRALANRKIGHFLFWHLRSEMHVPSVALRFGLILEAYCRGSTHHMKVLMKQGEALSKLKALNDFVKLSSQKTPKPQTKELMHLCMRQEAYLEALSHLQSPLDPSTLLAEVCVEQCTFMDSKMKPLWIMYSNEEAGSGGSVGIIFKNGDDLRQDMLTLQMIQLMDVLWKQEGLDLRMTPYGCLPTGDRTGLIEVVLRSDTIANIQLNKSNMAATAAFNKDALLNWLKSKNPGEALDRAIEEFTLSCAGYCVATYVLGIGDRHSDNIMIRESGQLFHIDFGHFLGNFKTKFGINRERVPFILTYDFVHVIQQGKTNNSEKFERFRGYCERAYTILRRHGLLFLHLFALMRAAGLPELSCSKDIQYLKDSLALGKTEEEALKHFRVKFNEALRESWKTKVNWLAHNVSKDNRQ
PI3Kδ, sequence (P27986 whole entry partner): as the sequence (P27986 whole entry partner) above

Row | Compound | IC50 (PI3Kδ) [nM] | α/δ selectivity (PI3Kα)
1 | COc1ncc(-c2nc(N3CCOCC3)nc3c(CN4CCN(C)CC4)csc23)cc1NS(=O)(=O)c1ccc(F)cc1F [Compound 68] | 71 | 19
2 | COc1ncc(-c2nc(N3CCOCC3)nc3c(CN4CCN(C)CC4)csc23)cc1NS(=O)(=O)C1CC1 [Compound 69] | 31 | 79
3 | CCS(=O)(=O)Nc1cc(-c2nc(N3CCOCC3)nc3c(CN4CCN(C)CC4)csc23)cnc1OC [Compound 70] | 23 | 87
4 | COc1ncc(-c2nc(N3CCOCC3)nc3c(CN4CCN(C)CC4)csc23)cc1NS(=O)(=O)N(C)C [Compound 72] | 60 | 29
5 | COc1ncc(-c2nc(N3CCOCC3)nc3c(CN4CCN(C(=O)[C@@H](C)O)CC4)c(C)sc23)cc1NS(C)(=O)=O [Compound 73] | 4.4 | 18
6 | COc1ncc(-c2nc(N3CCOCC3)nc3c(CN4CCN(C(=O)[C@H](C)O)CC4)c(C)sc23)cc1NS(C)(=O)=O [Compound 74] | 4.4 | 13
7 | CN1CCN(Cc2csc3c(-c4cncc(NS(C)(=O)=O)c4)nc(N4CCOCC4)nc23)CC1 [Compound 75] | 31 | 19
8 | CCNC(=O)C1CCN(Cc2csc3c(-c4cnc(OC)c(NS(C)(=O)=O)c4)nc(N4CCOCC4)nc23)CC1 [Compound 76] | 7.3 | 60
9 | COc1ncc(-c2nc(N3CCOCC3)nc3c(CN4CCN(C5CC(C)OC(C)C5)CC4)csc23)cc1NS(C)(=O)=O (centres unmarked) [Compound 77] | 7.1 | 52
10 | COc1ncc(-c2nc(N3CCOCC3)nc3c(CN4CCC(C(C)(C)F)CC4)c(C)sc23)cc1NS(=O)(=O)C1CC1 [Compound 80] | 39 | >256
11 | CNC1CCN(Cc2c(C)sc3c(-c4cnc(OC)c(NS(C)(=O)=O)c4)nc(N4CCOCC4)nc23)CC1 [Compound 92] | 71 | 42
12 | COc1ncc(-c2nc(N3CCOCC3)nc3c(CN4CCC(N(C)C)CC4)c(C)sc23)cc1NS(C)(=O)=O [Compound 93] | 10 | 82
13 | COc1ncc(-c2nc(N3CCOCC3)nc3c(CN(C)C)c(C)sc23)cc1NS(C)(=O)=O [Compound 94] | 32 | 31
14 | COc1ncc(-c2nc(N3CCOCC3)nc3c(CN4CCNCC4)c(C)sc23)cc1NS(C)(=O)=O [Compound 96] | 31 | 64
15 | COc1ncc(-c2nc(N3CCOCC3)nc3cc(C)sc23)cc1NS(C)(=O)=O [Compound 97] | 190 | 10
16 | COc1ncc(-c2nc(N3CCOCC3)nc3c(CN4CCOCC4)c(C)sc23)cc1NS(C)(=O)=O [Compound 98] | 12 | 30
17 | COc1ncc(-c2nc(N3CCOCC3)nc3c(CN4CCC(F)CC4)c(C)sc23)cc1NS(C)(=O)=O [Compound 105] | 31 | 77
18 | COc1ncc(-c2nc(N3CCOCC3)nc3c(CN4CCC(=O)CC4)c(C)sc23)cc1NS(C)(=O)=O [Compound 107] | 11 | 45
19 | COC(=O)C1CCN(Cc2c(C)sc3c(-c4cnc(OC)c(NS(C)(=O)=O)c4)nc(N4CCOCC4)nc23)CC1 [Compound 111] | 6.5 | 301
20 | COc1ncc(-c2nc(N3CCOCC3)nc3c(CN4CCS(=O)(=O)CC4)c(C)sc23)cc1NS(C)(=O)=O [Compound 113] | 6.6 | 27
21 | COC(=O)N1CCN(Cc2c(C)sc3c(-c4cnc(OC)c(NS(C)(=O)=O)c4)nc(N4CCOCC4)nc23)CC1 [Compound 114] | 5 | 44
22 | COc1ncc(-c2nc(N3CCOCC3)nc3c(CN4CCC5(CC4)COC5)c(C)sc23)cc1NS(C)(=O)=O [Compound 115] | 13 | 67
23 | COc1ncc(-c2nc(N3CCOCC3)nc3c(CN4CCn5cnnc5C4)c(C)sc23)cc1NS(C)(=O)=O [Compound 116] | 4.3 | 57
24 | COc1ncc(-c2nc(N3CCOCC3)nc3c(CN4CCC(CO)CC4)c(C)sc23)cc1NS(C)(=O)=O [Compound 117] | 7.2 | 213
25 | COc1ncc(-c2nc(N3CCOCC3)nc3c(CN4CCC(C(C)(C)O)CC4)c(C)sc23)cc1NS(=O)(=O)C(F)(F)F [Compound 118] | 2.6 | 92
26 | COc1ncc(-c2nc(N3CCOCC3)nc3c(CN4CCN(C(C)(C)CO)CC4)c(C)sc23)cc1NS(C)(=O)=O [Compound 119] | 5 | 84
27 | Cc1sc2c(-c3cnc(Cl)c(NS(C)(=O)=O)c3)nc(N3CCOCC3)nc2c1CN1CCC(C(C)(C)O)CC1 [Compound 120] | 5 | 24
28 | CCN(CC)C1CN(Cc2c(C)sc3c(-c4cnc(OC)c(NS(C)(=O)=O)c4)nc(N4CCOCC4)nc23)C1 [Compound 122] | 9 | 172
29 | COc1ncc(-c2nc(N3CCOCC3)nc3c(CN4CCC(N5CCCC5)C(F)(F)C4)c(C)sc23)cc1NS(C)(=O)=O (centres unmarked) [Compound 123] | 6.8 | 175

Other lines, results leading:

Row | IC50 (PI3Kδ) [nM] | α/δ selectivity (PI3Kα) | Compound
30 | 3.1 | 430 | COc1ncc(-c2nc(N3CCOCC3)nc3c(CN4CCC(N5CCC[C@H]5C(F)(F)F)CC4)c(C)sc23)cc1NS(C)(=O)=O [Compound 124]
31 | 2.6 | 239 | COc1ncc(-c2nc(N3CCOCC3)nc3c(CN4CCC(N5CCC[C@H]5C)CC4)c(C)sc23)cc1NS(C)(=O)=O [Compound 125]
32 | 6 | 223 | COc1ncc(-c2nc(N3CCOCC3)nc3c(CN4CCC(N5CCC(F)CC5)CC4)c(C)sc23)cc1NS(C)(=O)=O [Compound 128]
33 | 19 | 100 | COc1ncc(-c2nc(N3CCOCC3)nc3c(CN4CC[C@H](N5CCCC5)C4)c(C)sc23)cc1NS(C)(=O)=O [Compound 129]
34 | 6.7 | 273 | COc1ncc(-c2nc(N3CCOCC3)nc3c(CN4CC[C@@H](N5CCCC5)C4)c(C)sc23)cc1NS(C)(=O)=O [Compound 130]
35 | 6.2 | 627 | COc1ncc(-c2nc(N3CCOCC3)nc3c(CN4CCC(C5CC5)CC4)c(C)sc23)cc1NS(C)(=O)=O [Compound 131]
36 | 10 | 35 | COc1ncc(-c2nc(N3CCOCC3)nc3c(CN4CCC(N5CC=CC5)CC4)c(C)sc23)cc1NS(C)(=O)=O [Compound 132]
37 | 7.7 | 185 | COc1ncc(-c2nc(N3CCOCC3)nc3c(CN4CC[C@@H](N5CCC[C@H]5C)C4)c(C)sc23)cc1NS(C)(=O)=O [Compound 133]
38 | 4 | 188 | COc1ncc(-c2nc(N3CCOCC3)nc3c(CN4CC[C@@H](N5CCC[C@@H]5C)C4)c(C)sc23)cc1NS(C)(=O)=O [Compound 134]
39 | 6.3 | 226 | COc1ncc(-c2nc(N3CCOCC3)nc3c(CCN4CCCCC4)c(C)sc23)cc1NS(C)(=O)=O [Compound 135]
40 | 7.8 | 268 | C=C1CCN(Cc2c(C)sc3c(-c4cnc(OC)c(NS(C)(=O)=O)c4)nc(N4CCOCC4)nc23)CC1 [Compound 136]
41 | 11 | 309 | COc1ncc(-c2nc(N3CCOCC3)nc3c(CN4CCC5(CC4)CC5)c(C)sc23)cc1NS(C)(=O)=O [Compound 137]
42 | 34 | 67 | COc1ncc(-c2nc(N3CCOCC3)nc3c(CN4CCc5ccccc5C4)c(C)sc23)cc1NS(C)(=O)=O [Compound 138]
43 | 3.2 | 69 | COc1ncc(-c2nc(N3CCOCC3)nc3c(CN4CCC(S(C)(=O)=O)CC4)c(C)sc23)cc1NS(C)(=O)=O [Compound 139]
44 | 3.2 | 55 | COc1ncc(-c2nc(N3CCOCC3)nc3c(CN4CCN(C)C(=O)C4)c(C)sc23)cc1NS(C)(=O)=O [Compound 140]
45 | 9 | 120 | COc1ncc(-c2nc(N3CCOCC3)nc3c(CN4CC5CC5C4)c(C)sc23)cc1NS(C)(=O)=O (centres unmarked) [Compound 141]
46 | 3.7 | 60 | COc1ncc(-c2nc(N3CCOCC3)nc3c(CN4CCN(CC(C)(C)O)CC4)c(C)sc23)cc1NS(C)(=O)=O [Compound 142]
